From patent US20240391899A1, “POTENT AND SELECTIVE INHIBITORS OF IRAK4” (Dana-Farber Cancer Institute, Inc., priority 2021, published 2024)

Key:
IRAK4 = molecular target: T1, IRAK4 (Homo sapiens, UniProt Q9NWZ3); test: IRAK4 enzymatic assay (Z'-LYTE, ThermoFisher); assay type: biochemical; settings: 60 minutes at room temperature
T1 construct: purchased ThermoFisher
T1 sequence (Q9NWZ3 1-460): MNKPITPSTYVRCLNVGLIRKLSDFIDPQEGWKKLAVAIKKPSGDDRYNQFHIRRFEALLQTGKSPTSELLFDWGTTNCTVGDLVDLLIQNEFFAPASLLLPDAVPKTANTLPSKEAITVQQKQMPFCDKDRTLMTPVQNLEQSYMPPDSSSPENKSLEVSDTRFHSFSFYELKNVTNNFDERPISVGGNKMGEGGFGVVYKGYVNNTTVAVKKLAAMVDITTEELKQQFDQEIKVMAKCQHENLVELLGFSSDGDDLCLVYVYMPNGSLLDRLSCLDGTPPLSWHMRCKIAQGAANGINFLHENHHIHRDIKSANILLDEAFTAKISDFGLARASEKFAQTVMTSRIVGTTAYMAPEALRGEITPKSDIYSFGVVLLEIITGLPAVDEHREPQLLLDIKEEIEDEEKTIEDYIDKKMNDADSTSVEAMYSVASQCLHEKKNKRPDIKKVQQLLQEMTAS
Method: To measure the IC50 values of compounds herein against IRAK4, a Z′-LYTE assay (ThermoFisher) was used. Briefly, 2.5 μL of different concentrations of the compounds in 1% DMSO were added to 2.4 μL kinase buffer (50 mM HEPES pH 7.5, 0.01% BRIJ-35, 10 mM MgCl2, 1 mM EGTA) in each well of a 384-well plate (Corning Cat. #3676). 5 μL of 2×IRAK4/Ser/Thr 07 mixture (prepared in 50 mM HEPES pH 7.5, 0.01% BRIJ-35, 10 mM MnCl2, 2 mM DTT, and 0.02% NaN3) and 2.5 μL of 4×ATP solution (4×ATP, 50 mM HEPES, pH 7.5, 0.01% BRIJ-35, 10 mM MgCl2, 1 mM EGTA) were added to each well. The plate was shaken for 30 seconds, and then incubated at room temperature for 60 minutes. 5 μL of a 1:100000 dilution of Development Reagent A was added to each well. The plate was shaken for 30 seconds and incubated for 60 minutes at room temperature. The plate was subsequently read on a fluorescence plate reader, and the emissions ratio was calculated to determine the ratio of Ser/Thr 07 phosphorylated by the reaction. Emissions Ratio=Coumarin Emission (443 nm)/Flourescein Emission (520 nm).

IRAK1 = molecular target: T2, IRAK1 (Homo sapiens, UniProt P51617); test: IRAK1 enzymatic assay (Adapta Universal Kinase Assay, ThermoFisher); assay type: biochemical; settings: 60 minutes at room temperature
T2 construct: purchased ThermoFisher
Method: To measure the IC50 values of the compounds herein against IRAK1, the Adapta Universal Kinase Assay (ThermoFisher) was used. Briefly, 100 nL of different concentrations of the compounds in 100% DMSO were added to each well of a 384-well plate (Corning Cat. #4512). 2.4 μL of 30 mM HEPES, 2.5 μL of 4×ATP solution (in water), and 5 μL of 2×IRAK1/Histone H3 (1-20) peptide mixture (prepared in 50 mM HEPES pH 7.5, 0.01% BRIJ-35, 10 mM MgCl2, 1 mM EGTA) were added to each well. The plate was shaken for 30 seconds and centrifuged for 1 minute at 1000×g. The plate was then incubated at room temperature for 60 minutes. 5 μL of Detection Mix was added to each well. The plate was shaken for 30 seconds and centrifuged for 1 minute at 1000×g. The plate was then incubated at room temperature for 60 minutes. The plate was subsequently read on a fluorescence plate reader, and the emissions ratio was calculated to determine the ratio of ATP to ADP. Emissions Ratio=AF647 Emission (665 nm)/Europium Emission (615 nm).

T2 sequence (P51617 whole entry): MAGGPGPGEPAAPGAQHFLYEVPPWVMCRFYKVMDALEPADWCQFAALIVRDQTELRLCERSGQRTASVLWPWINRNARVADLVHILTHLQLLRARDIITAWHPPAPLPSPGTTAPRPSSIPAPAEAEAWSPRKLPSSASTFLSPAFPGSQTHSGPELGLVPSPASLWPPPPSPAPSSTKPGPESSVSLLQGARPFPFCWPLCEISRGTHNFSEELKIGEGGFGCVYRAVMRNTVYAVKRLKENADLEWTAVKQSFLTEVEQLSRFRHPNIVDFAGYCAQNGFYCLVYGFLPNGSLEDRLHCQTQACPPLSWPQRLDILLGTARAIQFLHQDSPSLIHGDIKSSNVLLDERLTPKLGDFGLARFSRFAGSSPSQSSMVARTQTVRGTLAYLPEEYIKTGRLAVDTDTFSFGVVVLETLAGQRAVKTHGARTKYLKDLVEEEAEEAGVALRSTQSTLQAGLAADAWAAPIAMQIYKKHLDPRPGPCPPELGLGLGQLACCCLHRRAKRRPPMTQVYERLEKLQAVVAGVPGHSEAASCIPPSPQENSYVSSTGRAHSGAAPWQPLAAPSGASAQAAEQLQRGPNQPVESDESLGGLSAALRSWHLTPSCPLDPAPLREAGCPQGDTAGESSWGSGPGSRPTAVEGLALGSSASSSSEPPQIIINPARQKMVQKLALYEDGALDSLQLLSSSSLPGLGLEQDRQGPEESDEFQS

SMILES | IC50 (IRAK4) [µM] | IC50 (IRAK1) [µM]
CN1CCC(c2cc(NC(=O)c3cccc(-c4ccn[nH]4)n3)n(-c3ccccn3)n2)CC1 [Compound 001, N-(3-(1-Methylpiperidin-4-yl)-1-(pyridin-2-yl)-1H-pyrazol-5-yl)-6-(1H-pyrazol-5-yl)picolinamide] | 0.004 | 0.008
CC(C)N1CCC(c2cc(NC(=O)c3cccc(-c4cn[nH]c4)n3)n(-c3ccccn3)n2)CC1 [Compound 003, N-(3-(1-isopropylpiperidin-4-yl)-1-(pyridin-2-yl)-1H-pyrazol-5-yl)-6-(1H-pyrazol-4-yl)picolinamide] | 0.006 | 0.066
CC(C)N1CCC(c2cc(NC(=O)c3cccc(-c4cnsc4)n3)n(-c3ccccn3)n2)CC1 [Compound 005, N-(3-(1-isopropylpiperidin-4-yl)-1-(pyridin-2-yl)-1H-pyrazol-5-yl)-6-(isothiazol-4-yl)picolinamide] | 0.037 | 0.183
Cc1ccc(-n2nc(C3CCN(C4COC4)CC3)cc2NC(=O)c2ccccn2)nc1 [Compound 008, N-(1-(5-methylpyridin-2-yl)-3-(1-(oxetan-3-yl)piperidin-4-yl)-1H-pyrazol-5-yl)picolinamide] | 0.148 | 1.35
Cc1ccc(-n2nc(C3CCN(C(C)C)CC3)cc2NC(=O)c2ccccn2)nc1 [Compound 009, N-(3-(1-isopropylpiperidin-4-yl)-1-(5-methylpyridin-2-yl)-1H-pyrazol-5-yl)picolinamide] | 0.055 | 1.65
CC(C)N1CCC(c2cc(NC(=O)c3ccccn3)n(-c3ccccn3)n2)CC1 [Compound 010, N-(3-(1-isopropylpiperidin-4-yl)-1-(pyridin-2-yl)-1H-pyrazol-5-yl)picolinamide] | 0.043 | 1.1
Cc1ccc(-n2nc(C3CCN(C)CC3)cc2NC(=O)c2ccccn2)nc1 [Compound 011, N-(3-(1-methylpiperidin-4-yl)-1-(5-methylpyridin-2-yl)-1H-pyrazol-5-yl)picolinamide] | 0.17 | 0.835
Cc1ccc(-n2nc(C3CCN(C(C)C)CC3)cc2NC(=O)c2cccc(-c3cnn(CC(=O)N(C)C)c3)n2)nc1 [Compound 013, 6-(1-(2-(dimethylamino)-2-oxoethyl)-1H-pyrazol-4-yl)-N-(3-(1-isopropylpiperidin-4-yl)-1-(5-methylpyridin-2-yl)-1H-pyrazol-5-yl)picolinamide] | 0.045 | 0.718
CC(C)N1CCC(c2cc(NC(=O)c3cccc(-c4cnn(CC(N)=O)c4)n3)n(-c3ccccn3)n2)CC1 [Compound 016, 6-(1-(2-amino-2-oxoethyl)-1H-pyrazol-4-yl)-N-(3-(1-isopropylpiperidin-4-yl)-1-(pyridin-2-yl)-1H-pyrazol-5-yl)picolinamide] | 0.039 | 0.828
Cc1ccc(-n2nc(C3CCN(C(C)C)CC3)cc2NC(=O)c2cccc(C#N)n2)nc1 [Compound 017, 6-cyano-N-(3-(1-isopropylpiperidin-4-yl)-1-(5-methylpyridin-2-yl)-1H-pyrazol-5-yl)picolinamide] | 0.009 | 0.09
CC(C)N1CCC(c2cc(NC(=O)c3cccc(/C=C/C(N)=O)n3)n(-c3ccccn3)n2)CC1 [Compound 018, (E)-6-(3-amino-3-oxoprop-1-en-1-yl)-N-(3-(1-isopropylpiperidin-4-yl)-1-(pyridin-2-yl)-1H-pyrazol-5-yl)picolinamide] | 0.024 | 0.234
CC(C)N1CCC(c2cc(NC(=O)c3cccc(CCC(N)=O)n3)n(-c3ccccn3)n2)CC1 [Compound 019, 6-(3-amino-3-oxopropyl)-N-(3-(1-isopropylpiperidin-4-yl)-1-(pyridin-2-yl)-1H-pyrazol-5-yl)picolinamide] | 0.047 | 0.242
CC(C)N1CCC(c2cc(NC(=O)c3cccc(N4CCNCC4)n3)n(-c3ccccn3)n2)CC1 [Compound 020, N-(3-(1-isopropylpiperidin-4-yl)-1-(pyridin-2-yl)-1H-pyrazol-5-yl)-6-(piperazin-1-yl)picolinamide] | 0.561 | 10

Results, then the molecule that gave them:

IC50 (IRAK4) [µM] | IC50 (IRAK1) [µM] | SMILES
0.003 | 0.036 | Cc1ccc(-n2nc(C3CCN(C(C)C)CC3)cc2NC(=O)c2cccc(-c3cn[nH]c3)n2)nc1 [Compound 002, N-(3-(1-isopropylpiperidin-4-yl)-1-(5-methylpyridin-2-yl)-1H-pyrazol-5-yl)-6-(1H-pyrazol-4-yl)picolinamide]
0.024 | 0.372 | Cc1ccc(-n2nc(C3CCN(C(C)C)CC3)cc2NC(=O)c2cccc(-c3cnsc3)n2)nc1 [Compound 004, N-(3-(1-isopropylpiperidin-4-yl)-1-(5-methylpyridin-2-yl)-1H-pyrazol-5-yl)-6-(isothiazol-4-yl)picolinamide]
0.006 | 0.015 | Cc1ccc(-n2nc(C3CCN(C(C)C)CC3)cc2NC(=O)c2cccc(-c3cnoc3)n2)nc1 [Compound 006, N-(3-(1-isopropylpiperidin-4-yl)-1-(5-methylpyridin-2-yl)-1H-pyrazol-5-yl)-6-(isoxazol-4-yl)picolinamide]
0.031 | 0.317 | CC(C)N1CCC(c2cc(NC(=O)c3cccc(-c4cnoc4)n3)n(-c3ccccn3)n2)CC1 [Compound 007, N-(3-(1-isopropylpiperidin-4-yl)-1-(pyridin-2-yl)-1H-pyrazol-5-yl)-6-(isoxazol-4-yl)picolinamide]
0.003 | 0.007 | Cc1ccc(-n2nc(C3CCN(C(C)C)CC3)cc2NC(=O)c2cccc(-c3ccn[nH]3)n2)nc1 [Compound 012, N-(3-(1-isopropylpiperidin-4-yl)-1-(5-methylpyridin-2-yl)-1H-pyrazol-5-yl)-6-(1H-pyrazol-5-yl)picolinamide]
0.036 | 0.656 | CNC(=O)Cn1cc(-c2cccc(C(=O)Nc3cc(C4CCN(C(C)C)CC4)nn3-c3ccc(C)cn3)n2)cn1 [Compound 014, N-(3-(1-isopropylpiperidin-4-yl)-1-(5-methylpyridin-2-yl)-1H-pyrazol-5-yl)-6-(1-(2-(methylamino)-2-oxoethyl)-1H-pyrazol-4-yl)picolinamide]
